From PubChem BioAssay (NCI)
Where “and” joins values, the source holds several entries; their conditions need not be identical. Identical values can stand only once.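 Step 1: Grow cells in 96-well plates. Step 2: Expose to compound for 48 hours at 5 concentrations. Step 3: Interpolate endpoints linearly; if unreached, use highest concentration. GI50 is the concentration that inhibits growth by half. Definition used: TGI = concentration required for complete inhibition of growth.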

Assays:
Assay in all cases: growth of human tumour cells (NCI), 48 h
EKVX NSCLC = test system: EKVX NSCLC
MDA-MB-231 breast = test system: MDA-MB-231 breast
OVCAR-3 ovarian = test system: OVCAR-3 ovarian
T-47D breast = test system: T-47D breast
OVCAR-4 ovarian = test system: OVCAR-4 ovarian
CCRF-CEM leukemia = test system: CCRF-CEM leukemia
UACC-62 melanoma = test system: UACC-62 melanoma
KM12 colon = test system: KM12 colon
MDA-MB-435 = test system: MDA-MB-435
IGROV1 ovarian = test system: IGROV1 ovarian

| Compound | GI50 (EKVX NSCLC) | TGI (EKVX NSCLC) | GI50 (MDA-MB-231 breast) | TGI (MDA-MB-231 breast) | GI50 (OVCAR-3 ovarian) | TGI (OVCAR-3 ovarian) | GI50 (T-47D breast) | TGI (T-47D breast) | GI50 (OVCAR-4 ovarian) | TGI (OVCAR-4 ovarian) | GI50 (CCRF-CEM leukemia) | TGI (CCRF-CEM leukemia) | GI50 (UACC-62 melanoma) | TGI (UACC-62 melanoma) | GI50 (KM12 colon) | TGI (KM12 colon) | GI50 (MDA-MB-435) | TGI (MDA-MB-435) | GI50 (IGROV1 ovarian) | TGI (IGROV1 ovarian) |
| --- | --- | --- | --- | --- | --- | --- | --- | --- | --- | --- | --- | --- | --- | --- | --- | --- | --- | --- | --- | --- |
| CC1(C)CN(CCNc2nccc(-c3c(-c4cccc(O)c4)nc4sccn34)n2)S(=O)(=O)N1 | > 33.2 µM | > 33.2 µM | 7.94 µM | > 33.2 µM | 12.2 µM | > 33.2 µM | 11.2 µM | > 33.2 µM | 12.8 µM | > 33.2 µM | 7.25 µM | > 33.2 µM | 0.116 µM | 3.3 µM | 11.9 µM | > 33.2 µM | 0.641 µM | > 33.2 µM | 6.58 µM | > 33.2 µM |
| Oc1ccc(/C=N/NC(=S)Nc2cccnc2)nc1 |  | > 100 µM |  | > 31.6 µM |  | > 100 µM |  | > 100 µM |  | > 100 µM |  | 9.78 µM |  | 29.3 µM |  | > 100 µM |  | > 100 µM |  | > 100 µM |
| Cc1cn2c(/C=C3\C(=O)N(C)c4ccc(Cl)cc43)c(C)nc2s1 | 9.9 µM | > 100 µM | 4.5 µM | 23.5 µM | 2.55 µM | 6.93 µM | > 100 µM | > 100 µM | 6.18 µM | 91 µM | 2.74 µM | 10.1 µM | 3.7 µM | > 100 µM | 1.29 µM | > 100 µM | 1.94 µM | 5.66 µM | 2.99 µM | > 100 µM |
| C(=C\c1ccc(OCC2CO2)cc1)/C1=NCOC1 (stereo unspecified) | 19.1 µM | 58.4 µM | 14.7 µM | 30.7 µM | 7.87 µM | 29.1 µM | 3.57 µM | 18.6 µM | 15.4 µM | 31.9 µM | 2.89 µM | 13.3 µM | 12.2 µM | 26.5 µM | 16.5 µM | 40.8 µM | 11 µM | 37.3 µM | 5.74 µM | 20.4 µM |
| NCCCNc1nc2ccccc2c2c(=O)c3cc(F)cc(Cl)c3sc12 | 1.56 µM | 3.07 µM | 1.58 µM | 3.07 µM | 1.78 µM | 3.25 µM | 1.4 µM | 4.23 µM | 1.82 µM | 3.63 µM | 1.95 µM | 4.58 µM | 1.82 µM | 3.52 µM | 1.72 µM | 3.17 µM | 1.66 µM | 3.04 µM | 1.58 µM | 3.12 µM |
| NC(Cc1c[nH]c2cccc(F)c12)C(=O)O (stereo unspecified) | 778 µM | > 4500 µM | 545 µM | 2300 µM | 39.6 µM and 237 µM | 967 µM |  | > 4500 µM |  | > 4500 µM |  | > 4500 µM | 582 µM | 1990 µM | 25.2 µM and 230 µM | > 4500 µM | 50.9 µM and 189 µM | > 4500 µM | 43.8 µM |  |
